Each structure is given as a SMILES string.

Common to all, as to type: biochemical
Experiment [1] has as its target T1, Human Factor XIIa (hFXIIa) (Homo sapiens, UniProt P00748).
T1 construct: purchased Enzyme Research Laboratories
T1 sequence (P00748 373-615 limits assumed): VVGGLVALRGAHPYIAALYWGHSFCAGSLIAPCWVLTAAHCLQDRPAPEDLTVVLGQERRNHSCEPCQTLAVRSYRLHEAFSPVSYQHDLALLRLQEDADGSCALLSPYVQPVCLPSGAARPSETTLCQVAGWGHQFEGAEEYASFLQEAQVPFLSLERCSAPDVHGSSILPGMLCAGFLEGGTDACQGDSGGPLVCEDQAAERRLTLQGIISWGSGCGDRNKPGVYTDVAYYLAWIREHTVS
T1 sequence (P00748 20-372 partner limits assumed): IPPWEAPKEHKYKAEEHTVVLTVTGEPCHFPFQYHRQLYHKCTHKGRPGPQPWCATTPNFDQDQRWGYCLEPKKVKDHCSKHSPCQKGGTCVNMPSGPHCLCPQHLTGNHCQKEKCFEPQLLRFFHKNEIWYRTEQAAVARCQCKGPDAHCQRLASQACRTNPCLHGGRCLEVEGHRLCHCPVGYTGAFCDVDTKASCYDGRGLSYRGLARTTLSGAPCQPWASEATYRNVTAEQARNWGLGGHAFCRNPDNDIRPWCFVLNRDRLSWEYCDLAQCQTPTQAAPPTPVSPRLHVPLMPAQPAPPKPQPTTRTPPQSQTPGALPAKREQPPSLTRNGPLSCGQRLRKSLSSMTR
As to the kind of experiment: Determination of Human Factor XIIa (hFXIIa) inhibition, fluorogenic substrate IC50 assay. The note with it: fluorogenic substrate H-DPro-Phe-Arg-AFC at Km, 25° C., read-out: Human FXIIa IC50. As for the experimental part:
Determination of Human Factor XIIa (hFXIIa) inhibition
The Km for the cleavage of the substrate by hFXIIa was determined by standard transformation of the Michaelis-Menten equation, with subsequent inhibition assays performed at substrate Km concentration.

The target of experiment [2] is FXa (Homo sapiens, UniProt P00742). Put plainly: Related protease inhibition: FXa, fluorogenic substrate. The note with it: fluorogenic substrate at Km, 25° C., H1-H3 = % activity at 40 μM; for activity at 40 µM: read-out: IC50 (human FXa) nM. As for the experimental part:
(§1) Human serine protease enzyme Plasma Kallikrein, KLK1, FXa, Plasmin, Thrombin and Trypsin were assayed for enzymatic activity using an appropriate fluorogenic substrate at Km concentration, FXIa at fixed substrate concentration of 100 μM and various concentrations of the test compound.

The target in experiment [3] is Thrombin (Homo sapiens, UniProt P00734). Put plainly: Related protease inhibition: Thrombin, fluorogenic substrate. The note with it: fluorogenic substrate at Km, 25° C., H1-H3 = % activity at 40 μM; for activity at 40 µM: read-out: IC50 (human thrombin) nM. As for the experimental part: as §1

Sequence of FXa (P00742 235-488 limits assumed): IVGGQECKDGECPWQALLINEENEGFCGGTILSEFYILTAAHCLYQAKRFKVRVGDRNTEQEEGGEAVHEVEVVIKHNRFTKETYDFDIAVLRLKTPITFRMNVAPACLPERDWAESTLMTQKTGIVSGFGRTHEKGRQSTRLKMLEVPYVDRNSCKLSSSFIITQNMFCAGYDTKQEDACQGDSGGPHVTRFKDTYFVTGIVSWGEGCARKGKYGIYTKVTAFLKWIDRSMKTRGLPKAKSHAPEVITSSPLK
Sequence of FXa (P00742 41-179 partner limits assumed): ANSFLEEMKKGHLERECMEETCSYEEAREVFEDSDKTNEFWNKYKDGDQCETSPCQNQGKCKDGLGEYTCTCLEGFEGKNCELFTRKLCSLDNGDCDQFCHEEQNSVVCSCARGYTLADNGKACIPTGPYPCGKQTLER

Take `CCNC(=O)c1nn(-c2cccc(Cl)c2)c2c1CCN(c1cccc(N3C(=O)C[C@@H]4C[C@@H]43)c1)C2=O` (single isomer, unassigned) [Example 1408, 1-(3-Chlorophenyl)-N-ethyl-7-oxo-6-(3-((1S*,5S*)-3-oxo-2-azabicyclo[3.1.0]hexan-2-yl)phenyl)-4,5,6,7-tetrahydro-1H-pyrazolo[3,4-c]pyridine-3-carboxamide]: the IC50 in experiment [1] fell in the range of 0.3 to 1 µM; in experiment [2] it was 10 to 40 µM. The activity at 40 µM in experiment [3] is 20 to 80%.

Regarding `CN1CCc2ccc(N3CCc4c(C(=O)NCC5CCOCC5)nn(-c5cccc(Cl)c5)c4C3=O)cc2C1` [Example 1027, 1-(3-chlorophenyl)-6-(2-methyl-1,2,3,4-tetrahydroisoquinolin-7-yl)-7-oxo-N-((tetrahydro-2H-pyran-4-yl)methyl)-4,5,6,7-tetrahydro-1H-pyrazolo[3,4-c]pyridine-3-carboxamide], the figures for the IC50 in experiment [1], in experiment [2] and in experiment [3] were 0.3 to 1 µM, 3 to 10 µM and over 100 µM, respectively.

Take `CC(C)N1CCc2ccc(N3CCc4c(C(=O)NCC5CC5)nn(-c5cccc(Cl)c5)c4C3=O)cc2C1` [Example 1035, 1-(3-chlorophenyl)-N-(cyclopropylmethyl)-6-(2-isopropyl-1,2,3,4-tetrahydroisoquinolin-7-yl)-7-oxo-4,5,6,7-tetrahydro-1H-pyrazolo[3,4-c]pyridine-3-carboxamide]: the IC50 in experiment [1] is 0.1 to 0.3 µM; in experiment [2], 10 to 40 µM; in experiment [3], over 100 µM.

On to `COCCN1CCc2ccc(N3CCc4c(C(=O)NCC5CC5)nn(-c5cccc(Cl)c5)c4C3=O)cc2C1` [Example 1037, 1-(3-chlorophenyl)-N-(cyclopropylmethyl)-6-(2-(2-methoxyethyl)-1,2,3,4-tetrahydroisoquinolin-7-yl)-7-oxo-4,5,6,7-tetrahydro-1H-pyrazolo[3,4-c]pyridine-3-carboxamide], for which the IC50 in experiment [1] is 0.01 to 0.1 µM; in experiment [2] it was over 100 µM; in experiment [3] it was over 100 µM.

As to `CN1CCc2ccc(N3CCc4c(C(=O)NC5CCCC5)nn(-c5cccc(Cl)c5)c4C3=O)cc2C1` [Example 1044, 1-(3-chlorophenyl)-N-cyclopentyl-6-(2-methyl-1,2,3,4-tetrahydroisoquinolin-7-yl)-7-oxo-4,5,6,7-tetrahydro-1H-pyrazolo[3,4-c]pyridine-3-carboxamide], the IC50 in experiment [1] is 0.1 to 0.3 µM; in experiment [2], 3 to 10 µM; in experiment [3], over 100 µM.

For `Cc1cc(CNC(=O)c2nn(-c3cccc(Cl)c3)c3c2CCN(c2ccc4c(c2)C(=O)N(CC(F)(F)F)CCO4)C3=O)n[nH]1` [Example 1378, 1-(3-chlorophenyl)-N-((5-methyl-1H-pyrazol-3-yl)methyl)-7-oxo-6-(5-oxo-4-(2,2,2-trifluoroethyl)-2,3,4,5-tetrahydrobenzo[f][1,4]oxazepin-7-yl)-4,5,6,7-tetrahydro-1H-pyrazolo[3,4-c]pyridine-3-carboxamide], the IC50 in experiment [1] fell in the range of 0.01 to 0.1 µM; in experiment [2], 10 to 40 µM; in experiment [3], 10 to 40 µM.

As to `CN1CCc2ccc(N3CCc4c(C(=O)N[C@H](CO)C5CC5)nn(-c5cccc(Cl)c5)c4C3=O)cc2C1=O` [Example 1406, (S)-1-(3-chlorophenyl)-N-(1-cyclopropyl-2-hydroxyethyl)-6-(2-methyl-1-oxo-1,2,3,4-tetrahydroisoquinolin-7-yl)-7-oxo-4,5,6,7-tetrahydro-1H-pyrazolo[3,4-c]pyridine-3-carboxamide], the IC50 in experiment [1] lay within 0.1 to 0.3 µM. In addition, the figures for the activity at 40 µM in experiment [2] and in experiment [3] were over 80% and 20 to 80%, respectively.

On to `CCNC(=O)c1nn(-c2cccc(Cl)c2)c2c1CCN(c1cccc(N3CCN(C(C)C)C3=O)c1)C2=O` [Example 1409, 1-(3-chlorophenyl)-N-ethyl-6-(3-(3-isopropyl-2-oxoimidazolidin-1-yl)phenyl)-7-oxo-4,5,6,7-tetrahydro-1H-pyrazolo[3,4-c]pyridine-3-carboxamide], for which the IC50 in experiment [1] was 3 to 10 µM. Further, the activity at 40 µM in experiment [2] and in experiment [3] was over 80% in each case.

Regarding `COCCNC(=O)c1nn(-c2cccc(Cl)c2)c2c1CCN(c1ccc3c(c1)C(=O)N(C)CC3)C2=O` [Example 1410, 1-(3-chlorophenyl)-N-(2-methoxyethyl)-6-(2-methyl-1-oxo-1,2,3,4-tetrahydroisoquinolin-7-yl)-7-oxo-4,5,6,7-tetrahydro-1H-pyrazolo[3,4-c]pyridine-3-carboxamide], the IC50 in experiment [1] was in the range of 0.3 to 1 µM. In addition, the activity at 40 µM in experiment [2] is 20 to 80%; in experiment [3], under 20%.

For `CN1CCc2ccc(N3CCc4c(C(=O)N[C@@H]5COC[C@H]5O)nn(-c5cccc(Cl)c5)c4C3=O)cc2C1=O` [Example 1411, 1-(3-chlorophenyl)-N-((3R,4S)-4-hydroxytetrahydrofuran-3-yl)-6-(2-methyl-1-oxo-1,2,3,4-tetrahydroisoquinolin-7-yl)-7-oxo-4,5,6,7-tetrahydro-1H-pyrazolo[3,4-c]pyridine-3-carboxamide], the IC50 in experiment [1] lay in the range of 0.3 to 1 µM. Moreover, the activity at 40 µM in experiment [2] and in experiment [3] was over 80% throughout.

Consider `CN1CCc2ccc(N3CCc4c(C(=O)N[C@@H]5COC[C@@H]5O)nn(-c5cccc(Cl)c5)c4C3=O)cc2C1=O` [Example 1412, 1-(3-chlorophenyl)-N-((3R,4R)-4-hydroxytetrahydrofuran-3-yl)-6-(2-methyl-1-oxo-1,2,3,4-tetrahydroisoquinolin-7-yl)-7-oxo-4,5,6,7-tetrahydro-1H-pyrazolo[3,4-c]pyridine-3-carboxamide], for which the IC50 in experiment [1] fell in the range of 0.3 to 1 µM. In addition, the activity at 40 µM in experiment [2] and in experiment [3] was 20 to 80% in each case.

For the compound `CCOC(=O)c1nn(-c2cccc(Cl)c2)c2c(=O)n(-c3ccc4c(c3)C(=O)N(CCO)CC4)c(C)nc12` [Example 3019, ethyl 1-(3-chlorophenyl)-6-(2-(2-hydroxyethyl)-1-oxo-1,2,3,4-tetrahydroisoquinolin-7-yl)-5-methyl-7-oxo-6,7-dihydro-1H-pyrazolo[4,3-d]pyrimidine-3-carboxylate], the IC50 in experiment [1] lay in the range of 0.1 to 0.3 µM; in experiment [2], 3 to 10 µM.

For the compound `Cc1cc(CNC(=O)c2nn(-c3cccc(Cl)c3)c3c(=O)n(-c4ccc5c(c4)C(=O)N(C)CC5)c(C)nc23)n[nH]1` [Example 3020, 1-(3-chlorophenyl)-5-methyl-6-(2-methyl-1-oxo-1,2,3,4-tetrahydroisoquinolin-7-yl)-N-((5-methyl-1H-pyrazol-3-yl)methyl)-7-oxo-6,7-dihydro-1H-pyrazolo[4,3-d]pyrimidine-3-carboxamide], the IC50 was in the range of 0.1 to 0.3 µM in experiment [1] and 10 to 40 µM in experiment [2].

As to `Cc1cc(CNC(=O)c2nn(-c3cccc(Cl)c3)c3c(=O)n(-c4ccc5c(c4)C(=O)N(C)CC5)c(C)nc23)nn1C` [Example 3021, 1-(3-chlorophenyl)-N-((1,5-dimethyl-1H-pyrazol-3-yl)methyl)-5-methyl-6-(2-methyl-1-oxo-1,2,3,4-tetrahydroisoquinolin-7-yl)-7-oxo-6,7-dihydro-1H-pyrazolo[4,3-d]pyrimidine-3-carboxamide], the IC50 in experiment [1] was in the range of 0.1 to 0.3 µM; in experiment [2] it was 10 to 40 µM.

Turning to `CCNC(=O)c1nn(-c2cccc(Cl)c2)c2c(=O)n(-c3ccc4c(c3)C(=O)N(C)CC4)c(C)nc12` [Example 3022, 1-(3-chlorophenyl)-N-ethyl-5-methyl-6-(2-methyl-1-oxo-1,2,3,4-tetrahydroisoquinolin-7-yl)-7-oxo-6,7-dihydro-1H-pyrazolo[4,3-d]pyrimidine-3-carboxamide], the results for the IC50 in experiment [1] and in experiment [2] were 0.3 to 1 µM and 10 to 40 µM, respectively.

With `Cc1cc(CNC(=O)c2nn(-c3cccc(Cl)c3)c3c2CN(c2ccc4c(c2)CN(CCO)CC4)C3=O)nn1C` [Example 4001, 1-(3-Chlorophenyl)-N-[(1,5-dimethylpyrazol-3-yl)methyl]-5-[2-(2-hydroxyethyl)-3,4-dihydro-1H-isoquinolin-7-yl]-6-oxo-4H-pyrrolo[3,4-c]pyrazole-3-carboxamide], the IC50 in experiment [1] is 3 to 10 µM; in experiment [2], over 40 µM.

Turning to `O=C(Cn1nc(-c2cccc(Cl)c2)c2c1CCN(c1ccc3c(c1)CN(CCO)CC3)C2=O)NCC1CC1` [Example 4002, 2-[3-(3-Chlorophenyl)-5-[2-(2-hydroxyethyl)-3,4-dihydro-1H-isoquinolin-7-yl]-4-oxo-6,7-dihydropyrazolo[4,3-c]pyridin-1-yl]-N-(cyclopropylmethyl) acetamide], the results for the IC50 in experiment [1] and in experiment [2] were 1 to 3 µM and over 40 µM, respectively.
